The values that follow come from patent US11351157B2, “Treatment of immunological disease using berberine nanoparticles” (Icahn School of Medicine at Mount Sinai, priority 2016, dated 2022).

One data set relates to peanut-specific IgE. The experiment in a line: Peanut-specific IgE in serum of peanut-sensitized mice (ELISA). The format is in vivo, C3H/HeJ mice. Particulars: two oral courses, vs Sham. From the text:
Six-week-old female C3H/HeJ mice purchased from the Jackson Laboratory (Bar Harbor, Me.) were maintained in pathogen-free facilities at the Mount Sinai vivarium on peanut-free chow according to standard guidelines for the care and use of animals. Institute of Laboratory Animal Resources Commission of Life Sciences NRC. Guide for the Care and Use of Laboratory Animals: National Academic Press, 1996. […] Some mice were sensitized to egg white (EW) using a similar protocol. Subsequently, daily oral treatment with BBR-nanoparticles was administered in 4-week and 2-week phases with an interval of 2 weeks at times indicated. Mice were periodically challenged with systemic and oral challenges at approximately 6 week intervals, as indicated. In some experiments mice were given intraperitoneal injections of 100 μg of anti-CD8 or anti-IFNγ antibodies, one day prior and then twice weekly during treatment period. Microtitre plates were coated with defatted protein extracts of peanut or egg white (sample wells) and rat anti-mouse IgE (reference wells) and held overnight at 4° C. After washing three times, plates were blocked for 2 hours at room temperature with 2% BSA-PBS. After three washes plates were incubated with diluted serum samples overnight at 4° C. […] Total IgA, peanut specific IgG1 and IgG2a levels were measured as described in a previous publication. […]

In a further data set the test system is human B cells. Particulars: cited from earlier work; for IgE production by human B cells: human B cells / U266 cells.
A further data set has as its system P-glycoprotein. Particulars: mediated by P-glycoprotein; cited from earlier work.
For data set [1], the system named is peripheral blood mononuclear cells (PBMCs). Particulars: cited from earlier work; for IgE production by PBMCs: PBMCs from patients with food allergy.
The conditions of data set [2]: in vivo; cited from earlier work.
The target of data set [3] is T1, mIgE (membrane-bound IgE) (Homo sapiens, UniProt P01854).
T1 construct: host or cells: endogenous mIgE on IgE-lineage B cells of human trial subjects
T1 sequence (P01854 whole entry): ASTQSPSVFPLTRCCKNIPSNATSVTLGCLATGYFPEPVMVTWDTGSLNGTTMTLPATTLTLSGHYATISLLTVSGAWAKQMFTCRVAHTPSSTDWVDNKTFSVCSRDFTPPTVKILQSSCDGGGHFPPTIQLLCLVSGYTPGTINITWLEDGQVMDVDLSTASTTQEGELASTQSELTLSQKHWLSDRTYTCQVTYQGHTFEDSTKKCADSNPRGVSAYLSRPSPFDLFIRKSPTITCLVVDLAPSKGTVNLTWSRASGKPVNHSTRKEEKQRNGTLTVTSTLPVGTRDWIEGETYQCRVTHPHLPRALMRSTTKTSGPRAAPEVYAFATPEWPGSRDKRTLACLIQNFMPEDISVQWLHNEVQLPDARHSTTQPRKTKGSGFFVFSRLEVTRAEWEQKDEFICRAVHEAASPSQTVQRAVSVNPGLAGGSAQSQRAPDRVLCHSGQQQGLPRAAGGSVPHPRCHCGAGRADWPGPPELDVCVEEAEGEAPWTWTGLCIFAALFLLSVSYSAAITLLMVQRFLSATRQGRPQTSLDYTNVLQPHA
T1 sequence (P11912 33-226 partner): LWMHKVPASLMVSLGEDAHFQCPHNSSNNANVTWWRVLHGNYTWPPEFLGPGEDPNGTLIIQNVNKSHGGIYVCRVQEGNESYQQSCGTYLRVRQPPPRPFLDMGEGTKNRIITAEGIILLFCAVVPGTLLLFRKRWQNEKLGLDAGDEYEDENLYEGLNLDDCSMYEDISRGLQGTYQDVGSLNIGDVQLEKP
T1 sequence (P40259 29-229 partner): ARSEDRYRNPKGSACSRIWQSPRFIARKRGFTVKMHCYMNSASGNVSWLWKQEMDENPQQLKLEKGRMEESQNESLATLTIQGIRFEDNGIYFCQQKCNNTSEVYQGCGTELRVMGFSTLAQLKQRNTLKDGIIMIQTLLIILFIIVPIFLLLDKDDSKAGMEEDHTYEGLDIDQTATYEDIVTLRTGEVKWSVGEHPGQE
The settings on record: clinical trials; cited from earlier work.

Read-outs that look alike come from different tables or passages of the source.

`COc1ccc2cc3[n+](cc2c1OC)CCc1cc2c(cc1-3)OCO2` [berberine, Berberine]: in the data set with peanut-specific IgE, the “Peanut-specific IgE” value is recorded as “not”. For the same molecule, in the data set on human B cells, the “IC50 of IgE production” value was 0.1962 µg/mL and the “IgE production by human B cells” value is recorded as “significant reduction”. Further, the “IgE production by human B cells” value in the data set on human B cells (listed as Berberine) is “significantly reduced”. In addition, in the data set on P-glycoprotein, the “Rate of efflux from intestinal epithelial cells” value was “up to 95%”. For the same molecule, in data set [1], the “IgE production by PBMCs” value is recorded as “significant reduction” and the “Cytotoxicity of inhibition in PBMCs” value is reported as “non-cytotoxic”. In addition, in data set [1] (listed as Berberine), the “IgE production by PBMCs” value is reported as “significantly reduced”. Also, in data set [2], the “Berberine taken up by the gastrointestinal tract” value was “less than 5%” and the Bioavailability entry was “less than 1%”.

B1: quilizumab: mIgE (membrane-bound IgE) targeting antibody studied in clinical trials (antibody, chains of the INN, looked up, V domains shown)
VH: EVQLVESGGGLVQPGGSLRLSCAASGFTFSDYGIAWVRQAPGKGLEWVAFISDLAYTIYYADTVTGRFTISRDNSKNTLYLQMNSLRAEDTAVYYCARDNWDAMDYWGQGTLVTVSS
VL: DIQMTQSPSSLSASVGDRVTITCRSSQSLVHNNANTYLHWYQQKPGKAPKLLIYKVSNRFSGVPSRFSGSGSGTDFTLTISSLQPEDFATYYCSQNTLVPWTFGQGTKVEIK
For the molecule B1, in data set [3], the “Clinical benefit in early human studies” value is recorded as “without any significant clinical benefit” and the “IgE reduction in early human studies” value is on record as “only moderate IgE reduction”.
